How the values were obtained:
[1] = tested on: Phakopsora pachyrhizi (F129L); assay: Protective control of soybean rust on soybeans (PHAKPA P6); type: in vivo; conditions: for % PHAKPA (F129L) Disease level P6 at 4 ppm: protective P6, 4 ppm; for % PHAKPA (F129L) Disease level P6 at 4 ppm / % PHAKPA (F129L) Disease level P6 at 16 ppm: soybean rust F129L; for % PHAKPA (F129L) Disease level P6 at 16 ppm: protective P6, 16 ppm
[2] = tested on: Phakopsora pachyrhizi (F129L); assay: Protective control of soybean rust on soybeans (PHAKPA P2); type: in vivo; conditions: for % PHAKPA (F129L) Disease level P2 at 4 ppm: protective P2, 4 ppm; for % PHAKPA (F129L) Disease level P2 at 4 ppm / % PHAKPA (F129L) Disease level P2 at 16 ppm: soybean rust F129L; for % PHAKPA (F129L) Disease level P2 at 16 ppm: protective P2, 16 ppm
[3] = P6 protective, % diseased leaf area
[4] = P2 protective, % diseased leaf area

Row | Structure (SMILES) | % PHAKPA (F129L) Disease level P6 at 4 ppm [1] | % PHAKPA (F129L) Disease level P6 at 16 ppm [1] | % PHAKPA (F129L) Disease level P2 at 4 ppm [2] | % PHAKPA (F129L) Disease level P2 at 16 ppm [2] | PHAKPA (F129L) Disease level (%) P6 at 16 ppm [1, 3] | PHAKPA (F129L) Disease level (%) P2 at 16 ppm [2, 4] | PHAKPA (F129L) Disease level (%) P6 at 4 ppm ([1]; P6 protective, 4 ppm, % diseased leaf area) | PHAKPA (F129L) Disease level (%) P2 at 4 ppm ([2]; P2 protective, 4 ppm, % diseased leaf area)
1 | CNC(=O)/C(=N/OC)c1cccc(C)c1CO/N=C(\C)c1c(Cl)cccc1Cl [compound 173] | 97% | 17% | 100% | 53% |  |  |  | 
2 | CNC(=O)/C(=N/OC)c1cccc(C)c1CO/N=C(\C)c1cc(F)c(F)cc1CC(F)(F)F [compound 406] | 67% | 23% | 97% | 30% |  |  |  | 
3 | CNC(=O)/C(=N/OC)c1cccc(C)c1CO/N=C(\C)c1cccc(C(C)C)c1 [compound 105] | 39% | 13% | 18% | 1% |  |  |  | 
4 | CO/N=C(/C(=O)OC)c1cccc(C)c1CO/N=C(\C)c1cccc(F)c1C(F)(F)F [compound 330] | 93% | 17% | 83% | 24% |  |  |  | 
5 | CNC(=O)/C(=N/OC)c1cccc(C)c1CO/N=C(\C)c1ccccc1C(C)C [compound 220] | 100% | 77% | 90% | 30% |  |  |  | 
6 | CO/N=C(/C(=O)OC)c1cccc(C)c1CO/N=C(\C)c1ccc(Cc2ccccc2)cc1OC(F)(F)F [compound 416] | 67% | 25% | 57% | 27% |  |  |  | 
7 | CNC(=O)/C(=N/OC)c1cccc(C)c1CO/N=C(\C)c1ccccc1C [compound 127] | 93% | 62% | 90% | 44% |  |  |  | 
8 | CO/N=C(\C)c1ccc(/C(C)=N/OCc2ccccc2/C(=N\OC)C(=O)OC)cc1 [reference compound] |  |  |  |  | 60% | 57% |  | 
9 | CNC(=O)/C(=N/OC)c1cccc(C)c1CO/N=C(\C)c1cc(C)cc(Cl)c1 [compound 106] | 32% | 9% | 5% | 1% |  |  |  | 
10 | CNC(=O)/C(=N/OC)c1cccc(C)c1CO/N=C(\C)c1ccc(F)c(F)c1 [compound 132] | 6% | 0% | 1% | 0% |  |  |  | 
11 | CO/N=C(/C(=O)OC)c1cccc(C)c1CO/N=C(\C)c1ccc(F)c(C(F)(F)F)c1 [compound 49] | 60% | 7% | 60% | 18% |  |  |  | 
12 | CNC(=O)/C(=N/OC)c1ccccc1CO/N=C(\C)c1ccccc1Br [reference compound] |  |  |  |  | 28% | 23% |  | 
13 | CNC(=O)/C(=N/OC)c1cccc(C)c1CO/N=C(\C)c1ccc(Cl)c(C)c1 [compound 107] | 15% | 1% | 1% | 0% |  |  |  | 
14 | CCc1ccccc1/C(C)=N/OCc1c(C)cccc1/C(=N\OC)C(=O)NC [compound 176] | 100% | 90% | 100% | 100% |  |  |  | 
15 | CO/N=C(/C(=O)OC)c1cccc(C)c1CO/N=C(\C)c1ccc(Cl)c(Cl)c1C(F)(F)F [compound 429] | 67% | 43% | 83% | 50% |  |  |  | 
16 | CO/N=C(/C(=O)OC)c1ccccc1CO/N=C(\C)c1ccc(C(F)(F)F)cc1 [reference compound] |  |  |  |  | 13% | 43% |  | 

Row | Structure (SMILES) | % PHAKPA (F129L) Disease level P6 at 4 ppm [1] | % PHAKPA (F129L) Disease level P6 at 16 ppm [1] | % PHAKPA (F129L) Disease level P2 at 4 ppm [2] | % PHAKPA (F129L) Disease level P2 at 16 ppm [2] | PHAKPA (F129L) Disease level (%) P6 at 16 ppm [1, 3] | PHAKPA (F129L) Disease level (%) P2 at 16 ppm [2, 4] | PHAKPA (F129L) Disease level (%) P6 at 4 ppm ([1]; P6 protective, 4 ppm, % diseased leaf area) | PHAKPA (F129L) Disease level (%) P2 at 4 ppm ([2]; P2 protective, 4 ppm, % diseased leaf area)
17 | CNC(=O)/C(=N/OC)c1cccc(C)c1CO/N=C(\CC(F)(F)F)c1ccccc1 [compound 380] | 60% | 12% | 53% | 5% |  |  |  | 
18 | CO/N=C(/c1cccc(/C(C)=N/OCc2c(C)cccc2/C(=N\OC)C(=O)OC)c1)C(F)(F)F [compound 70] | 10% | 1% | 30% | 0% |  |  |  | 
19 | CO/N=C(/C(=O)OC)c1cccc(C)c1CO/N=C(\C)c1c(C)cccc1C [compound 174] | 80% | 70% | 100% | 100% |  |  |  | 
20 | CNC(=O)/C(=N/OC)c1cccc(C)c1CO/N=C(\COC)c1ccccc1 [compound 295] | 11% | 0% | 2% | 0% |  |  |  | 
21 | CNC(=O)/C(=N/OC)c1cccc(C)c1CO/N=C(\C)c1cccc(-c2noc(C(F)(F)F)n2)c1 [compound 67] | 80% | 30% | 67% | 2% |  |  |  | 
22 | CO/N=C(/C(=O)OC)c1cccc(C)c1CO/N=C(/c1ccccc1)C(F)F [compound 72] | 93% | 80% | 100% | 87% |  |  |  | 
23 | CNC(=O)/C(=N/OC)c1cccc(C)c1CO/N=C(\C)c1ccc(OC(F)(F)F)cc1C [compound 261] | 87% | 32% | 70% | 9% |  |  |  | 
24 | CNC(=O)/C(=N/OC)c1cccc(C)c1CO/N=C(\C)c1ccc(-c2ccccc2)cc1OC(F)(F)F [compound 435] | 87% | 60% | 93% | 57% |  |  |  | 
25 | CNC(=O)/C(=N/OC)c1cccc(C)c1CO/N=C(\C)c1cccc(C(C)(C)C)c1 [compound 100] | 25% | 4% | 18% | 0% |  |  |  | 
26 | CO/N=C(/C(=O)OC)c1cccc(C)c1CO/N=C(\C)c1c(F)cc(F)cc1OC(F)(F)F [compound 361] | 88% | 31% | 80% | 18% |  |  |  | 
27 | CNC(=O)/C(=N/OC)c1cccc(C)c1CO/N=C(\C)c1cccc(-c2noc(C(F)(F)F)n2)c1 [Ex. 205] |  |  |  |  | 1% | 1% |  | 
28 | CO/N=C(/C(=O)OC)c1cccc(C)c1CO/N=C(\C)c1ccc(OC(F)(F)F)cc1Cl [compound 268] | 60% | 17% | 63% | 6% |  |  |  | 
29 | CO/N=C(/C(=O)OC)c1cccc(C)c1CO/N=C(\C)c1c(F)cccc1C(F)(F)F [compound 365] | 97% | 43% | 77% | 15% |  |  |  | 
30 | CO/N=C(/C(=O)OC)c1cccc(C)c1CO/N=C(/c1ccc(Cl)cc1)C(F)F [Ex. 20] | 97% | 18% | 73% | 29% |  |  |  | 
31 | CC/C(=N\OCc1ccccc1/C(=N\OC)C(=O)NC)c1cccc(C(F)(F)F)c1 [reference compound] |  |  |  |  |  |  | 70% | 60%
32 | CNC(=O)/C(=N/OC)c1cccc(C)c1CO/N=C(\C)c1cc(Br)cc(F)c1F [compound 241] | 33% | 12% | 3% | 0% |  |  |  | 

From patent US20230172204A1 (BASF SE, priority 2020, published 2023)
